Results from patent US20190388558A1, “KARTOGENIN DERIVATIVE-CONTAINING POLYMERIC MICELLE, HYALURONIC ACID HYDROGEL, METHOD FOR PRODUCING THE SAME, AND USE THEREOF” (DONGGUK UNIVERSITY INDUSTRY-ACADEMIC COOPERATION FOUNDATION, priority 2018, published 2019).

Test system: rats in which OA was induced
Test: Intra-articular injection in rats with surgically induced (ACLT + MM) degenerative arthritis; histology, immunohistochemistry, OARSI and Mankin scoring
Assay type: in vivo, Sprague Dawley rats
Details: IA injection twice at 7th and 10th week after surgery, sacrificed 8th week after first injection
Method: Animal experiments were performed with the approval of the animal experiment ethics committee by using 9-week old male Sprague Dawley rats (Orient Inc., Seoul, Korea). Degenerative arthritis (osteoarthritis; OA) was induced by performing anterior cruciate ligament transection (ACLT) and medial meniscectomy (MM) on the rats, and the rats were allowed to exercise on a treadmill for 20 minutes every day from two weeks after the surgery.
In the Examples of the present invention, technical statistics were used in order to determine the group average and standard deviation. […]
The rats were sacrificed at 8th week after the first IA injection, the knee joints were dissected and fixed with 10% paraformaldehyde (at 4° C. for 1 day), and then calcareous materials were removed with a Lite decalcifying solution (Sigma-Aldrich), and after the resulting knee joints were embedded in a Tissue-Tek OCT compound (Sakura Finetek, Torrance, Calif., USA) or paraffin wax, and then the paraffin wax fragment was stained with Safranin-O (4% w/v) and Fast Green (0.1% w/w). The degenerative state was evaluated by using an Osteoarthritis Research Society International (OARSI) cartilage Histopathology Assessment System and a Mankin evaluation system, and the fragments were analyzed through immunohistochemistry for COL2 and aggrecan. […]

O=C(O)c1ccccc1C(=O)Nc1ccc(-c2ccccc2)cc1 [KGN, kartogenin]
cartilage histology (Safranin-O staining): loss of cartilage due to matrix vertical cracks and surface layer exfoliation
